Assays:
[1] = test system: C57BL/6 mouse having MPTP-induced Parkinson's disease; assay: Dopamine cell protective activity in striatum and substantia nigra (TH immunohistochemistry), MPTP model; format: in vivo; conditions: 10 mg/kg oral once per day for 5 days, MPTP 30 mg/kg i.p., p<0.05 vs MPTP group
Description: Mice were divided into three groups, each of which consisted of 6 mice. A first group (control) and a second group (MPTP group) were orally administered once per day with 10% dimethyl sulfoxide in an amount of 5 ml per mouse weight kg for 5 days, and a third group (shogaol-administered group) was orally administered once per day with 10 mg/kg of shogaol dissolved in 10% dimethyl sulfoxide for 5 days. 2 hours after the oral administration, the first group (control) was intraperitoneally administered with saline in an amount of 5 ml per mouse weight kg for 5 days, and the second and third groups were intraperitoneally administered with 30 mg/kg of MPTP dissolved in saline for 5 days.
The mice of the respective groups were sacrificed after the pole test was completely performed, and brain tissues (striatum and substantia nigra) were isolated. […]
The mice of the respective groups were sacrificed after the pole test was completely performed, and brain tissues (striatum and substantia nigra) were isolated. Protection activity was evaluated using the isolated brain tissues in the same manner as in (1-2) above, and the results are shown in FIGS. 14 and 15. […]

[2] = test system: 2-vessel occlusion cerebral ischemia model; assay: 2-vessel occlusion cerebral ischemia model, neurons in CA1 of hippocampus; format: in vivo, mouse; conditions: 10 mg/kg in 10% tween 80, immediately after 2VO then once per day for 3 days
Description: 7-week old C57BL/6 based male mice (19-22 g) were obtained and nurtured in an animal laboratory at Kyunghee University Graduate School of East-West Medicine Science for one week or more for adaptation. Water and feed were freely supplied, and the temperature (22±2[…]), humidity (53±3%), and a cycle of brightness and darkness (12 hours) were automatically controlled.
Mice were divided into three groups, each of which consisted of 10 mice. Anesthesia was induced in an anesthetic gas (O2: 30%, N2O: 70%, and isoflurane: 2.0%) chamber, and mice of the respective groups were located on an operating table with their backs on the operating table. The skin of each mouse was cut upward by about 1.5 cm from a point where the upper limbs and an intermediate line meet, and then, facing common carotid arteries were exposed without damage of tissues. Tissues and nerves attached to the carotid arteries were dissociated and occlusion was performed thereon by using an aneurism clip for 25 minutes. In this regard, the temperature of the mice was measured by using a rectal thermometer and maintained at 37±0.5 □.
A sham control refers to a group obtained as described above except for the occlusion of the common carotid arteries. Medicine administration was performed immediately after a 2VO step, and thereafter, performed once per day for 3 days. […]

For `CCCCC/C=C/C(=O)CCc1ccc(O)c(OC)c1` [shogaol, (E)-1-(4-hydroxy-3-methoxyphenyl)dec-4-en-3-one], the “number of TH positive cells in substantia nigra” value ([1]; of a control) was 70.30±4.86, the “optical density of striatum (TH immunoreactivity)” value [1] was 80.11±1.97 % of a control and the “neuron apoptosis suppression efficacy in CA1” value [2] was 29.5±15.4 % of the 2VO step group.

— patent US9844521B2, “Pharmaceutical composition comprising ginger extract or shogaol” (UNIVERSITY-INDUSTRY COOPERATION GROUP OF KYUNG HEE …, priority 2008, dated 2017)
